Source: patent US4562206A, “Orally effective inotropic compounds” (Key Pharmaceuticals, Inc., priority 1984, dated 1985)
Entries after “also recorded” stand apart in the source; their conditions may differ. Counter-ions that a name gives are not always drawn.

Tests used:
[1] = test system: cardiac contractility; experiment: Cardiac contractility (inotropic effect), intravenous infusion, anesthetized open-chest dogs, strain gauge arch on right ventricle; format: in vivo; details: for Inotropic Potency Relative to Dobutamine, Mean ± S.E.: i.v. infusion, based on CC50 (rate that increases contractility by 50%)
Experimental: (§1) The data in FIGS. 1 and 2 and Table 2 were obtained on dogs anesthetized with sodium pentobarbital (30 mg/kg, i.v.). The animals were placed on artificial respiration and the chest was opened to expose the heart. A Walton-Brodie strain gauge arch was sutured to the right ventricle for measurement of cardiac contractility. Arterial blood pressure was measured from a catheter placed in the abdominal aorta. Cardiac contractility and arterial pressure were recorded continuously on a Grass polygraph. All drugs were dissolved and infused intravenously in 0.9% NaCl solution.

[2] = test system: diastolic blood pressure; experiment: Arterial blood pressure change, intravenous infusion, anesthetized open-chest dogs; format: in vivo; details: for Blood Pressure, Mean ± S.E. (change in diastolic blood pressure): dose 4 times larger than CC50, i.v.; for effect on blood pressure: i.v.
From the text: To illustrate the structural specificity of the compounds of the invention, four close structural analogs of Compound I were synthesized and their activity compared to that of Compound I. In these tests dobutamine was used as a standard so that Compound I and the four structural analogs could be compared on a common basis. FIGS. 1 and 2 graphically compares dobutamine, Compound I and Compound V (the closest structural analog of dobutamine and Compound I).
as §1
Blood Pressure = change in diastolic blood pressure caused by a dose 4
times larger than CC50 -

[3] = test system: left ventricular dP/dt; experiment: Inotropic response (left ventricular dP/dt) after buccal administration, anesthetized dogs; format: in vivo
From the text: The dogs were anesthetized with sodium pentobarbital as described above and a Millar® transducer-tip catheter positioned in the left ventircle after introduction through the left carotid artery. Left ventricular pressure was obtained from this catheter and electronically differentiated to obtain dP/dt.
The dogs were placed on their backs, and their heads and noses positioned so that their hard palates were level. After an appropriate period to collect control dP/dt values, the test drug was applied to the hard palate. The test drugs were made up in a solution of 50% ethanol in distilled water adjusting concentrations so that the desired dose was contained in 2.5 ml of solution. The drug solution was applied to a 100 mm^2 area of the hard palate contained by fitting parafilm over the drug solution lying on the palate.

[4] = Blood (plasma) levels during intravenous infusion in anesthetized dog, HPLC with electrochemical detection; format: in vivo; details: i.v. infusion 20 ug/kg/min; for concentration at 10 min / concentration at 20 min / concentration at 0.5 h: plasma, iv; for concentration at 10 min: infusion time 10 mins; for concentration at 20 min: infusion time 20 mins; for concentration at 0.5 h: infusion time 30 mins
Experimental: The data in Table 1 were obtained from a dog anesthetized with sodium pentobarbital (30 mg/kg, i.v.). The right femoral vein was cannulated for administration of drug and the left femoral vein was used for withdrawal of blood samples. All blood samples were collected in heparinized chilled tubes. The blood was centrifuged to separate red cells and the plasma was frozen.
After obtaining a control blood sample, dobutamine infusion at the rate of 20 ug/kg/min was maintained for 30 mins. During the infusion, blood samples were drawn at 10, 20, and 30 mins. One hour after completion of the dobutamine infusion, a second control sample of blood was drawn and an infusion of Compound I at 20 ug/kg/min was begun. Samples of blood were taken during the Compound I infusion at 10, 20, and 30 mins.
The concentrations of Compound I and dobutamine in plasma were measured using HPLC with electrochemical detection. Chromatography was performed using a reverse-phase octadecylsilane (C18) column attached to an amperometric detector equipped with a glassy carbon electrode at a potential of +600 mV. The mobile phase consisted of acetonitrile:pH 3 buffer (15:85); the buffer (pH 3) contained 0.035M KH2 PO4, 0.003M citric acid and 0.002M Na2 EDTA. At a flow rate of 1.5 ml/min, Compound I, dobutamine and the internal standard for the assay (dioxymethylene derivative of dobutamine) eluted in […] respectively.
In the assay procedure, control plasma (1 mil) spiked with 0, 20, 100, 300 and 500 ng/ml test drug was added to silanized glass tubes (13×128 mm) containing 100 ng of the internal standard as a solution in 100 ul of 5M K2 HPO4. The samples were mixed and extracted twice with 4 ml of ethyl acetate. Following centrifugation, the combined organic extracts were evaporated, the residue dissolved in […] of mobile phase and a 10-15 ul aliquot injected into the chromatograph. Calibration curves were constructed by plotting the peak height ratios of test drug to the internal standard over the concentration range and interpolation of unknown plasma concentrations from the fitted line.

[5] = test system: cardiac contractility; experiment: Inotropic response (LV dP/dt) when swallowed, conscious instrumented dogs; format: in vivo; details: 5 mg/kg oral capsule
Experimental: To test the effectiveness of Compound I when swallowed, five previously trained dogs, instrumented with a miniature pressure transducer for measurement of cardiac contractility were used. On different days the conscious dogs were tested with placebo, dobutamine (5 mg/kg) or Compound I (5 mg/kg).
Several months prior to doing the procedure described above, a minature pressure transducer was mounted in the left ventricle of each dog's heart. The dogs were trained to swallow capsules and lie quietly for up to 3 hours. During this time, continuous recording of left ventricular pressure was made on a Grass polygraph. Also recorded was an electronically differentiated signal on the left ventricular pressure. This differential is referred to as LV dP/dt. This LV dP/dt is the rate that the left ventricle develops pressure and is accepted as an index of cardiac contractility.
On each day of testing the dogs were forced to swallow a gelatin capsule that was either empty (placebo), or contained dobutamine (5 mg/kg) or Compound I (5 mg/kg). Recordings were then made of cardiac contractility for 2 hours after the dog swallowed the capsule.

[6] = test system: cardiac contractility; experiment: Intravenous infusion rates required to increase cardiac contractility by 50%, anesthetized dogs; format: in vivo
[7] = Buccal absorption of ester relative to parent (buccal versus intravenous potency comparison); format: in vivo, dogs; details: buccal versus i.v. potency, Compound I-A vs Compound I
From the text: Yet by the buccal route of administration, the ester was more than twice as potent as its parent. Therefore, the ester derivative was better absorbed through the buccal mucosa by a factor of more than eighteen times than was the parent compound.

[8] = background; cited from earlier work
[9] = test system: cardiac beta1 adrenergic receptors; details: background, Tuttle and Mills, Circ. Res. 36: 185, 1975; cited from earlier work

NC(=O)c1cccc(CCCNCCc2ccc(O)c(O)c2)c1 [Compound III]
inotropic potency ([1]; i.v.): potency was reduced | Inotropic Potency Relative to Dobutamine, Mean ± S.E. [1]: 1.4 ± 1 | Blood Pressure, Mean ± S.E. (change in diastolic blood pressure) [2]: 22.3 ± 16.2 | effect on blood pressure [2]: undesired elevation in blood pressure

NC(=O)c1cccc(CCNCCc2ccc(O)c(O)c2)c1 [Compound II]
inotropic potency ([1]; i.v.): not significantly better than that of dobutamine | Inotropic Potency Relative to Dobutamine, Mean ± S.E. [1]: 1.5 ± 0.1 | Blood Pressure, Mean ± S.E. (change in diastolic blood pressure) [2]: -8 ± 5 | effect on blood pressure [2]: no rise in blood pressure

CC(CCc1cccc(C(N)=O)c1)NCCc1ccc(OC(=O)C(C)(C)C)c(OC(=O)C(C)(C)C)c1 (stereo not shown) [Compound I-B]
Inotropic Response, Percent Change from Control, Mean ± S.E. (peak change in left ventricular dP/dt) ([3]; 1.39 mg/kg): 13 ± 7% | inotropic response, buccal ([3]; anesthetized dogs): small response

CC(CCc1cccc(C(N)=O)c1)NCCc1ccc(O)c(O)c1 (stereo not shown) [Compound I, N-[2-(3,4-dihydroxyphenyl)ethyl]-1-methyl-3-(3-carbamoylphenyl)propylaminehydrochloride]
Blood levels compared with dobutamine [4]: higher blood levels than dobutamine | concentration at 10 min [4]: 0.417 µg/mL | concentration at 20 min [4]: 0.451 µg/mL | concentration at 0.5 h [4]: 0.874 µg/mL | dose relative to that of dobutamine required for equivalent inotropic effect ([1]; i.v.): about a tenth | times more potent than dobutamine ([1]; i.v.): about ten | Inotropic Potency Relative to Dobutamine, Mean ± S.E. [1]: 9.1 ± 2.4 | Blood Pressure, Mean ± S.E. (change in diastolic blood pressure) [2]: 5.3 ± 4.5 | effect on blood pressure [2]: no significant change in blood pressure; also recorded: no greater than that of dobutamine | inotropic response when swallowed [5]: strong inotropic response; also recorded: effective when swallowed | persistence of inotropic response when swallowed [5]: more than two | Inotropic Response, Percent Change from Control, Mean ± S.E. (peak change in left ventricular dP/dt) ([3]; 2 mg/kg): 16.6 ± 6% | Intravenous infusion rate required to increase cardiac contractility by 50% ([6]; Dog #1, i.v.): 0.29 µg/kg/min | Intravenous infusion rate required to increase cardiac contractility by 50% ([6]; Dog #2, i.v.): 0.097 µg/kg/min

CC(CCc1cccc(C(N)=O)c1)NCCc1ccc(OC(=O)C(C)C)c(OC(=O)C(C)C)c1 (stereo not shown) [Compound I-A, N[2-(3,4-diisobutyryloxyphenyl)ethyl]-1-methyl-3-(3-carbamoylphenyl)propylamine hydrochloride]
Inotropic Response, Percent Change from Control, Mean ± S.E. (peak change in left ventricular dP/dt) ([3]; 1.39 mg/kg): 61 ± 3% | inotropic response, buccal ([3]; anesthetized dogs): the most effective by this route | buccal potency relative to Compound I ([3]; molar basis, anesthetized dogs): more than twice | Dose Ratio (Compound I-A to Compound I) ([6]; Dog #1, i.v.): 9.6 | Intravenous infusion rate required to increase cardiac contractility by 50% ([6]; Dog #1, i.v.): 2.8 µg/kg/min | Dose Ratio (Compound I-A to Compound I) ([6]; Dog #2, i.v.): 12.9 | Intravenous infusion rate required to increase cardiac contractility by 50% ([6]; Dog #2, i.v.): 1.25 µg/kg/min | times less potent than parent catechol (Compound I) ([6]; intravenous infusion): more than nine | factor of better absorption through the buccal mucosa than parent compound [7]: more than eighteen

CC(CCc1ccc(C(N)=O)cc1)NCCc1ccc(O)c(O)c1 (stereo not shown) [Compound V]
cardiac potency relative to that with carbamyl group in meta position (Compound I) ([1]; i.v.): less than a third | Inotropic Potency Relative to Dobutamine, Mean ± S.E. [1]: 2.9 ± 0.3 | effect on blood pressure [2]: dangerous rise in blood pressure

NC(=O)c1ccc(CCNCCc2ccc(O)c(O)c2)cc1 [Compound IV]
Inotropic Potency Relative to Dobutamine, Mean ± S.E. [1]: 1.38 ± 0.2 | Blood Pressure, Mean ± S.E. (change in diastolic blood pressure) [2]: 26 ± 10 | effect on blood pressure [2]: the blood pressure side effect reappears

CC(CCc1ccc(O)cc1)NCCc1ccc(O)c(O)c1 (stereo not shown) [Dobutamine, reference compound]
concentration at 10 min [4]: 0.155 µg/mL | concentration at 20 min [4]: 0.176 µg/mL | concentration at 0.5 h [4]: 0.158 µg/mL | Blood Pressure, Mean ± S.E. (change in diastolic blood pressure) [2]: 7.8 ± 4.5 | inotropic response when swallowed [5]: did not produce a response significantly better than the placebo | Inotropic Response, Percent Change from Control, Mean ± S.E. (peak change in left ventricular dP/dt) ([3]; 5 mg/kg): 2.7 ± 2% | clearance from the blood [8]: rapidly cleared from the blood | cardioselectivity [9]: cardioselective in its actions

CC(CCc1ccc(C(N)=O)cc1)NCCc1ccc(OC(=O)C(C)C)c(OC(=O)C(C)C)c1 (stereo not shown) [Compound V-A]
Inotropic Response, Percent Change from Control, Mean ± S.E. (peak change in left ventricular dP/dt) ([3]; 1.39 mg/kg): No response | inotropic response, buccal ([3]; anesthetized dogs): no response
